Data: PubChem BioAssay AID1259408 (Genetic Toxicology Data Bank (GENE-TOX), 2018)
Activity calls are given as the source filed them. The rule behind the calls is not given here.

System: GENE-TOX genotoxicity assays, various organisms and cells
Assay: GENE-TOX mutagenicity studies
Conditions: for call: Assay Type: In vivo carcinogenicity studies
[1] = Species/Cell Type: Saccharomyces cerevisiae, Assay Type: Mitotic recombination or gene conversion, Assay Code: YEC-, Evaluation Type: Evaluation A (Pre-1980)
[2] = Species/Cell Type: Allium cepa, Assay Type: Chromosome aberrations, Assay Code: ALC+, Evaluation Type: Evaluation A (Pre-1980)
[3] = Species/Cell Type: Salmonella typhimurium (one or more of the five standard strains: TA98, TA100, TA1535, TA1537, and TA1538), Assay Type: Histidine reverse gene mutation, Ames assay, Assay Code: SALT, Evaluation Type: Evaluation A (Pre-1980)
[4] = Species/Cell Type: Mammalian oocytes or early embryo, Assay Type: Chromosome aberrations in vivo, Assay Code: CYO-, Evaluation Type: Evaluation A (Pre-1980)
[5] = Species/Cell Type: Mammalian polychromatic erythrocytes, Assay Type: Micronucleus test, chromosome aberrations, Assay Code: MNTT, Evaluation Type: Evaluation A (Pre-1980)
[6] = Species/Cell Type: Chinese hamster ovary (CHO) cells, Assay Type: Forward gene mutation at the HPRT locus, Assay Code: CHOT, Evaluation Type: Evaluation B (Post-1980)
[7] = Species/Cell Type: Nonhuman, Assay Code: CCG+, Evaluation Type: Evaluation A (Pre-1980)
[8] = Species/Cell Type: Drosophila melanogaster, Assay Type: Sex-linked recessive lethal gene mutation, Assay Code: SRL+, Evaluation Type: Evaluation A (Pre-1980)
[9] = Species/Cell Type: Drosophila melanogaster, Assay Type: Aneuploidy, sex chromosome gain, chromosome aberrations, Assay Code: DAG+M, Evaluation Type: Evaluation A (Pre-1980)
[10] = Species/Cell Type: Drosophila melanogaster, Assay Type: Aneuploidy, whole sex chromosome loss, chromosome aberrations, Assay Code: DAC+M, Evaluation Type: Evaluation A (Pre-1980)

N[C@@H](CC(=O)O)C(=O)O
mutagenic call (Species/Cell Type: Allium cepa, Assay Type: Chromosome aberrations, Assay Code: ALC+D, Dose Response: With dose response, Evaluation Type: Evaluation A (Pre-1980)): active; positive
mutagenic call (Species/Cell Type: Human, Sex: Male, Assay Type: Sperm morphology, Assay Code: SPH+, Evaluation Type: Evaluation A (Pre-1980)): active; positive

CN(C)C(=O)Nc1cccc(C(F)(F)F)c1
mutagenic call [1]: inactive; negative

O=C(OCC1=CCN2CC[C@@H](OC(=O)c3ccc4c(c3)OCO4)[C@@H]12)c1ccc2c(c1)OCO2
mutagenic call [2]: active; positive

C=C(C)CC(C)(C)C
mutagenic call [3]: no conclusion

C[n+]1c2cc(N)ccc2cc2ccc(N)cc21 (tested in a mixture with another compound)
mutagenic call (Species/Cell Type: Aspergillus nidulans, Assay Type: Forward gene mutation, Assay Code: ASF+, Evaluation Type: Evaluation A (Pre-1980)): active; positive
mutagenic call (Species/Cell Type: Mammalian cell culture, nonhuman, Assay Type: Micronucleus test in vitro, chromosome aberrations, Assay Code: MN&+U, Dose Response: Unconfirmed positive response, Evaluation Type: Evaluation A (Pre-1980)): active; positive
mutagenic call [4]: inactive; negative
mutagenic call (Species/Cell Type: Mammalian polychromatic erythrocytes, Assay Type: Micronucleus test, chromosome aberrations, Assay Code: MNT+U, Dose Response: Unconfirmed positive response, Evaluation Type: Evaluation A (Pre-1980)): active; positive
mutagenic call (Species/Cell Type: Mouse, Sex: Male, Assay Type: Sperm morphology, Assay Code: SPI+, Evaluation Type: Evaluation A (Pre-1980)): active; positive
mutagenic call (Species/Cell Type: Saccharomyces cerevisiae, Assay Type: Mitotic recombination or gene conversion, Assay Code: YECT, Evaluation Type: Evaluation A (Pre-1980)): no conclusion
mutagenic call (Species/Cell Type: Saccharomyces cerevisiae, Assay Type: Mitotic recombination or gene conversion, Assay Code: YEH+, Evaluation Type: Evaluation A (Pre-1980)): active; positive
mutagenic call (Species/Cell Type: Salmonella typhimurium, Escherichia coli, Serratia marcesens, Assay Type: Forward and reverse gene mutation, host-mediated assay, Assay Code: HMN-, Evaluation Type: Evaluation A (Pre-1980)): inactive; negative

CC(=O)O[C@H]1C[C@@H]2CC[C@@H]3[C@H](CC[C@@]4(C)[C@H]3C[C@H]([N+]3(C)CCCCC3)[C@@H]4OC(C)=O)[C@@]2(C)C[C@@H]1[N+]1(C)CCCCC1
mutagenic call [3]: no conclusion

CN(C)CCc1c[nH]c2cccc(OP(=O)(O)O)c12
mutagenic call [5]: no conclusion

O=S(=O)(O)c1ccc2c(N=Nc3ccc(S(=O)(=O)O)c4ccccc34)c(O)ccc2c1
mutagenic call [1]: inactive; negative

[O-][n+]1ccccc1
mutagenic call (Species/Cell Type: Bacillus subtilis (H17 vs M45), Assay Type: Rec-assay, spot test, DNA effects (bacterial DNA repair), Assay Code: REW+, Evaluation Type: Evaluation A (Pre-1980)): active; positive
mutagenic call (Species/Cell Type: Escherichia coli polA (W3119 vs P3478), Assay Type: Rec-assay, DNA effects (bacterial DNA repair), Assay Code: RE1-, Evaluation Type: Evaluation A (Pre-1980)): inactive; negative

ClCc1ccccn1
call (Species/Cell Type: Nonhuman, Assay Code: CCG-L, Evaluation Type: Evaluation A (Pre-1980)): inactive; negative

COc1ccc2nc3cc(Cl)ccc3c(NCCCNCCO)c2c1
mutagenic call (Species/Cell Type: Chinese hamster ovary (CHO) cells, Assay Type: Forward gene mutation at the HPRT locus, Assay Code: CHO-, Evaluation Type: Evaluation A (Pre-1980)): inactive; negative
mutagenic call [6]: no conclusion
mutagenic call [3]: no conclusion

CC(=O)N(O)c1ccc(/C=C\c2ccccc2)cc1
mutagenic call (Species/Cell Type: Human diploid fibroblasts, Assay Type: Unscheduled DNA synthesis (UDS) in vitro, DNA effects, Assay Code: UDH+, Evaluation Type: Evaluation A (Pre-1980)): active; positive
call [7]: active; positive

Cc1cc(O)c(C(C)C)cc1O
mutagenic call (Species/Cell Type: Allium cepa, Assay Type: Chromosome aberrations, Assay Code: ALC-, Evaluation Type: Evaluation A (Pre-1980)): inactive; negative

Cc1nc2ccc([N+](=O)[O-])cc2[nH]1
mutagenic call (Species/Cell Type: Salmonella typhimurium (one or more of the five standard strains: TA98, TA100, TA1535, TA1537, and TA1538), Assay Type: Histidine reverse gene mutation, Ames assay, Assay Code: SAL+, Evaluation Type: Evaluation A (Pre-1980)): active; positive

CC(C)NCCCNc1c2ccccc2nc2cccc([N+](=O)[O-])c12
mutagenic call (Species/Cell Type: Human lymphocytes, Assay Type: Sister-chromatid exchange (SCE) in vitro, Assay Code: SCL+, Evaluation Type: Evaluation A (Pre-1980)): active; positive
mutagenic call (Species/Cell Type: Human, Assay Type: Sister-chromatid exchange (SCE) in vitro, Assay Code: SC1+, Evaluation Type: Evaluation A (Pre-1980)): active; positive

CCN(CCO)CCCNc1c2ccccc2nc2cc3ccccc3cc12
mutagenic call [6]: no conclusion

C#C[C@]1(O)CC[C@H]2[C@@H]3CCc4cc(CC)ccc4[C@H]3CC[C@@]21C (tested in a mixture with another compound)
mutagenic call (Species/Cell Type: Rodents, Sex: Male, Assay Type: Dominant lethal test, Assay Code: DLTT, Evaluation Type: Evaluation A (Pre-1980)): no conclusion

CC(CNC(=O)N(CCCl)N=O)NC(=O)N(CCCl)N=O (centres undefined)
mutagenic call [8]: active; positive
mutagenic call (Species/Cell Type: Saccharomyces cerevisiae, Assay Type: Mitotic recombination or gene conversion, Assay Code: YEC+, Evaluation Type: Evaluation A (Pre-1980)): active; positive

Cc1c2ccccc2cc2c1ccc1ccccc12
mutagenic call (Species/Cell Type: Chinese hamster lung (V79) cells, Assay Type: Forward gene mutation at the HPRT or ouabain locus, Assay Code: V79+*, Activation: With metabolic activation, Evaluation Type: Evaluation A (Pre-1980)): active; positive
mutagenic call (Species/Cell Type: Drosophila melanogaster, Assay Type: Sex-linked recessive lethal gene mutation, Assay Code: SRLT, Evaluation Type: Evaluation A (Pre-1980)): no conclusion
mutagenic call (Species/Cell Type: Mouse prostate cells, Assay Type: Cell transformation, Assay Code: CTM+D, Dose Response: With dose response, Evaluation Type: Evaluation A (Pre-1980)): active; positive
call [7]: active; positive
mutagenic call (Species/Cell Type: Nonhuman, Assay Type: Sister-chromatid exchange (SCE) in vitro, Assay Code: SC2+D, Dose Response: With dose response, Evaluation Type: Evaluation A (Pre-1980)): active; positive
mutagenic call (Species/Cell Type: Salmonella typhimurium (one or more of the five standard strains: TA98, TA100, TA1535, TA1537, and TA1538), Assay Type: Histidine reverse gene mutation, Ames assay, Assay Code: SAL+*, Activation: With metabolic activation, Evaluation Type: Evaluation A (Pre-1980)): active; positive
mutagenic call (Species/Cell Type: Syrian hamster embryo (SHE) cells, Assay Type: Cell transformation, clonal assay, Assay Code: CTC+, Evaluation Type: Evaluation A (Pre-1980)): active; positive

CC1CN(N=O)CC(C)N1C(=O)c1ccccc1 (centres undefined)
mutagenic call [3]: no conclusion

NNC(=O)NC(=O)NN
mutagenic call (Species/Cell Type: Escherichia coli WP2, Assay Type: Tryptophan reverse gene mutation, Assay Code: WP2+, Evaluation Type: Evaluation A (Pre-1980)): active; positive

Clc1ccc(C2CO2)cc1 (centres undefined)
mutagenic call [3]: no conclusion

CC(=O)NNC(C)=O
mutagenic call (Species/Cell Type: Mammalian polychromatic erythrocytes, Assay Type: Micronucleus test, chromosome aberrations, Assay Code: MNTT, Evaluation Type: Evaluation B (Post-1980)): no conclusion

CCN(CC)C(=O)[C@@H]1C=C2c3cccc4[nH]cc(c34)C[C@H]2N(C)C1
mutagenic call [2]: active; positive
mutagenic call (Species/Cell Type: Arabidopsis species, Assay Type: Gene mutation, Assay Code: ARM-, Evaluation Type: Evaluation A (Pre-1980)): inactive; negative
mutagenic call (Species/Cell Type: Drosophila melanogaster, Assay Type: Aneuploidy, partial sex chromosome loss, chromosome aberrations, Assay Code: DAP+M, Evaluation Type: Evaluation A (Pre-1980)): active; positive
mutagenic call [9]: active; positive
mutagenic call [10]: active; positive
mutagenic call [8]: active; positive
mutagenic call (Species/Cell Type: Drosophila melanogaster, Sex: Male, Assay Type: Heritable translocation test, chromosome aberrations, Assay Code: DHT-, Evaluation Type: Evaluation A (Pre-1980)): inactive; negative
mutagenic call (Species/Cell Type: Hordeum vulgare (barley), Assay Type: Chromosome aberrations, Assay Code: HOC+, Evaluation Type: Evaluation A (Pre-1980)): active; positive
mutagenic call (Species/Cell Type: Human lymphocytes or leukocytes, Assay Type: Chromosome aberrations in vitro, Assay Code: CY7-, Evaluation Type: Evaluation A (Pre-1980)): inactive; negative
mutagenic call (Species/Cell Type: Human lymphocytes or leukocytes, Assay Type: Chromosome aberrations in vivo, Assay Code: CY8T, Evaluation Type: Evaluation A (Pre-1980)): no conclusion
mutagenic call (Species/Cell Type: Mammalian germ cells, Sex: Male, Assay Type: Chromosome aberrations in vivo, Assay Code: CY9-, Evaluation Type: Evaluation A (Pre-1980)): inactive; negative
mutagenic call [4]: inactive; negative
mutagenic call [5]: no conclusion
mutagenic call (Species/Cell Type: Nonhuman, Assay Type: Chromosome aberrations in vitro, Assay Code: CY&-, Evaluation Type: Evaluation A (Pre-1980)): inactive; negative
mutagenic call (Species/Cell Type: Rodents, Sex: Male, Assay Type: Dominant lethal test, Assay Code: DLT-, Evaluation Type: Evaluation A (Pre-1980)): inactive; negative
mutagenic call (Species/Cell Type: Vicia faba, Assay Type: Chromosome aberrations, Assay Code: VIC-, Evaluation Type: Evaluation A (Pre-1980)): inactive; negative

Nc1nncs1
mutagenic call [9]: active; positive
mutagenic call [10]: active; positive
mutagenic call (Species/Cell Type: Drosophila melanogaster, Sex: Male, Assay Type: Heritable translocation test, chromosome aberrations, Assay Code: DHTT, Evaluation Type: Evaluation A (Pre-1980)): no conclusion

NNC(=O)COc1ccc(Br)cc1CN1CCCCC1
mutagenic call (Species/Cell Type: Saccharomyces cerevisiae, Assay Type: Reverse gene mutation, Assay Code: YERT, Evaluation Type: Evaluation A (Pre-1980)): no conclusion

CC1=C(/C=C/C(C)=C/C=C/C(C)=C\C(=O)O)C(C)(C)CCC1
mutagenic call (Species/Cell Type: Human, Assay Type: Sister-chromatid exchange (SCE) in vitro, Assay Code: SC1+D, Dose Response: With dose response, Evaluation Type: Evaluation B (Post-1980)): active; positive
